Paper PMC7756582, “Prodrugs of γ‐Alkyl‐Modified Nucleoside Triphosphates: Improved Inhibition of HIV Reverse Transcriptase” (Angewandte Chemie (International Ed. in English), 2020)

How the values were obtained:
[1] = Cytotoxicity: inhibition of CD4+ T-cell (CEM) proliferation; assay type: cell-based; conditions: human, CEM/0 cells (CD4+ T-cells), 50 % cytostatic concentration, mean±SD, n=2-3
human DNA polymerase β = target: T1, human DNA polymerase β (Homo sapiens, UniProt P06746); test: Primer extension assay with human DNA polymerase β; assay type: biochemical; conditions: single triphosphate, 66 μM, Pol β 6 U, 60 min
T1 construct: purchased Roboklon
Experimental: Two different set‐ups have been used. First, a mixture of dATP, dCTP, dGTP, and γ‐alkyl‐TTP (N*) or ‐d4TTP (T*) was used as a mixture. The results obtained from these experiments were compared to those in which just γ‐alkyl‐TTP (N) or d4TTP (T) was used. In each experiment a primer extension without added polymerase (negative control, ‐ lane) and an experiment in which all four canonical NTPs were added (positive control, +lane) were used as controls.
Figure 4 Primer extension assay using DNA polymerase β and the γ‐alkyl‐dNTP 7 and 15. Lane 1 (−): dATP, dGTP, dCTP and TTP without human DNA polymerase β; lane 2 (+): dATP, dGTP, dCTP, and TTP with human Pol β; lane 3 (N, C4‐T): γ‐C4‐TTP 15 w; lane 4 (N, C18‐T): γ‐C18‐TTP 15 z; lane 5 (T, C4‐d4T): γ‐C4‐d4TTP 7 w; lane 6 (T, C11‐d4T): γ‐C11‐d4TTP 7 x; lane 7 (T, C18‐d4T): γ‐C18‐d4TTP 7 z; lane 8 (d4TTP): d4TTP. […]
Anti-HIV activity assay: Inhibition of HIV-1(IIIB)- and HIV-2(ROD)-induced cytopathicity in wild-type CEM/0 and thymidine kinase-deficient CEM/TK- cell cultures was measured in microtiter 96-well plates containing ~3·105 CEM cells/mL infected with 100 CCID50 of HIV per milliliter and containing appropriate dilutions of the test compounds. […]
2) For HIV- RT assay: The final assay solution (10 µL) consists of 50 mM Tris-HCl (pH 8.6 at 22 °C), 10 mM MgCl2, 40mM KCl, dNTPs 66 µM, HIV RT 6 U, Hybrid 0.32 µM in a reaction volume of 10 µL, incubated 37 °C for 15 min, 80 °C for 3 min; 50 mA, 45w for 4 h. […] The result was visualized by fluorescence imaging.
3) For human DNA pol β assay: The final assay solution (10 µL) consists of 50 mM Tris-HCl (pH 8.7), 10 mM MgCl2, 100mM KCl, 1.0 mM dithiothreitol, 0.4 mg/ml of bovine serum albumin, 15% glycerol, dNTPs 66 µM, DNA Polymerase Beta 6 U, Hybrid 0.32 µM in a reaction volume of 10 µL, incubated 37 °C for 60 min, 80 °C for 3 min; 50 mA, 45w for 4 h. […] The result was visualized by fluorescence imaging. […]

Compound	CC50 [1] [µM]	primer extension by DNA polymerase β (substrate properties) (human DNA polymerase β)
CCCCCCCCCCCCCCCC(=O)Oc1ccc(COP(=O)(OCCCC)OP(=O)(O)OP(=O)(O)OCC2C=CC(n3cc(C)c(=O)[nH]c3=O)O2)cc1 (centres unmarked) [6 ew, γ‐(AB‐C15,alkyl‐C4)‐d4TTP]	21 ± 2	–
CCCCOP(=O)(O)OP(=O)(O)OP(=O)(O)OCC1C=CC(n2cc(C)c(=O)[nH]c2=O)O1 (centres unmarked) [7 w, γ‐C4‐d4TTP]	> 100	good substrate
CCCCCCCCCCCCCCCCCCOP(=O)(O)OP(=O)(O)OP(=O)(O)OCC1C=CC(n2cc(C)c(=O)[nH]c2=O)O1 (centres unmarked) [7 z, γ‐C18‐d4TTP]	86 ± 3	no incorporation was detected
Cc1cn(C2C=CC(COP(=O)(O)OP(=O)(O)OP(=O)(O)O)O2)c(=O)[nH]c1=O (centres unmarked) [2 t, d4TTP, reference compound]	> 100	efficiently incorporated
CCCCCCCCCCCCCCCCCCOP(=O)(OCc1ccc(OC(=O)CCCC)cc1)OP(=O)(O)OP(=O)(O)OCC1C=CC(n2cc(C)c(=O)[nH]c2=O)O1 (centres unmarked) [6 cz, γ‐(AB‐C4,alkyl‐C18)‐d4TTP]	13 ± 1	–
